This note sets out measurements from US11970452B2, “Modulators of mas-related G-protein receptor X2 and related products and methods” (Escient Pharmaceuticals, Inc., priority 2020, dated 2024).

Each structure is given as a SMILES string.

The target of the assay is T1, human MRGPRX2 (Homo sapiens, UniProt Q96LB1).
T1 construct: expressed in transfected cells
T1 sequence (Q96LB1 1-330): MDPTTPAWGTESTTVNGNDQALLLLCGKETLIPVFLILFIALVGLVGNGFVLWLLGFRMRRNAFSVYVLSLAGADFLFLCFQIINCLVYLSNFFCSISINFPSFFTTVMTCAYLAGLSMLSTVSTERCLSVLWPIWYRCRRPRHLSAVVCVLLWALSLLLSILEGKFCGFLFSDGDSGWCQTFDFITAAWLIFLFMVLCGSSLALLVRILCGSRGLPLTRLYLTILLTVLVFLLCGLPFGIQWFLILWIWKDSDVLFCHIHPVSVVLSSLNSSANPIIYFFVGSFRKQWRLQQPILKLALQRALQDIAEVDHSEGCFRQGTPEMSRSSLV
Put plainly: MRGPRX2 activity: IP-One HTRF antagonist assay versus 0.3 uM Cortistatin 14. The format is cell-based. The conditions noted are these: CHO cells expressing human MRGPRX2; IP-1 HTRF; versus 0.3 uM Cortistatin 14 agonist; read-out: MRGPR2 Antagonist Activity. Here is the method:
CHO cells stably transfected to express human MRGPRX2 were maintained in an incubator at 37° C. with 5% CO2 and grown in F12 (HAM) media with 10% fetal bovine serum (FBS), 1% Glutamax, 1% penicillin/streptomycin, 800 μg/mL Geneticin (G418), and 300 μg/mL Hygromycin B.
Cells were plated in a […] assay plate at 20,000 cells per well in 12 μL of Opti-MEM and kept in an incubator overnight. On the day of the assay, compounds solubilized at 10 mM in DMSO were added as a 10-point curve (30 uM final top concentration with 1:3 serial dilutions) using a Tecan D300E digital dispenser. Agonists were diluted in assay buffer (final concentrations of 5.7 mM Tris-HCl, 43 mM NaCl, 50 mM LiCl, pH=8) and 2 μL of the agonist Cortistatin 14 (CPC Scientific, catalog CORT-002) are added to each well. Final concentrations of agonists were 0.3 μM Cortistatin. Final concentrations of DMSO were kept consistent across the plate. Plates were incubated in the dark for 1 h at 37° C. and then for 1 h at room temperature. IP-1 standards and HTRF detection reagents were added according to the IP-One-Gq Kit purchased from Cisbio (part number 62IPAPEJ) and incubated in the dark for 1 h at room temperature. The plate was read on a Molecular Devices SpectraMax iD5 plate reader. The HTRF ratio was calculated from the raw data and graphed using GraphPad Prism to calculate an IC50 value for each compound.
The activity ranges are denoted as follows: “+++++” denotes antagonist activity <100 nM; “++++” denotes antagonist activity between 100 and 500 nM; “+++” denotes activity between 501 and 1000 nM; “++” denotes activity between 1001 and 2500 nM; and “+” denotes activity >2500 nM
Background: TR-FRET usually uses a lanthanide donor and a delayed reading to cut background.

As for `O=C(N[C@H]1CC[C@@H](Nc2cc(C(F)F)nc3ccc(Cl)cc23)CC1)c1ccc(F)cc1` [1-3, 4-fluoro-N-[(1s,4s)-4-{[6-chloro-2-(difluoromethyl)quinolin-4-yl]amino}cyclohexyl]benzamide], the IC50 lay within 100 to 500 nM. With `O=C(N[C@H]1CC[C@@H](Nc2cc(C(F)(F)F)nc3ccccc23)CC1)c1ccccc1Cl` [3-12], the IC50 lay in the range of 100 to 500 nM. As for `O=C(N[C@H]1CC[C@@H](Nc2cc(C(F)(F)F)nc3ccccc23)CC1)c1ccccn1` [3-21], the IC50 is 501 to 1000 nM. To `CCC(C(=O)N[C@H]1CC[C@@H](Nc2cc(C(F)(F)F)nc3ccccc23)CC1)c1ccccc1` (some centres unmarked) [3-24] belongs 1000 to 2500 nM; to `COc1ccc(C(=O)N[C@H]2CC[C@@H](Nc3cc(C(F)(F)F)nc4ccccc34)CC2)cc1F` [3-27], 501 to 1000 nM; to `O=C(N[C@H]1CC[C@@H](Nc2cc(C(F)(F)F)nc3ccccc23)CC1)c1cccs1` [3-36], 501 to 1000 nM. To `O=C(N[C@H]1CC[C@@H](Nc2cc(C(F)(F)F)nc3ccccc23)CC1)c1cccc(F)c1` [3-42] belongs 100 to 500 nM; to `COc1ccc(C(=O)N[C@H]2CC[C@@H](Nc3cc(C(F)(F)F)nc4ccc(Cl)cc34)CC2)c(C)n1` [4-6], 501 to 1000 nM. As to `CNc1cccc(C(=O)N[C@H]2CC[C@@H](Nc3cc(C(F)(F)F)nc4ccc(Cl)cc34)CC2)c1` [4-8], the IC50 fell in the range of 100 to 500 nM. To `O=C(N[C@H]1CC[C@@H](Nc2cc(C(F)(F)F)nc3ccc(Cl)cc23)CC1)c1ccc2[nH]c(-c3ccncc3)nc2c1` [4-23] belongs under 100 nM. As for `O=C(N[C@H]1CC[C@@H](Nc2cc(C(F)(F)F)nc3ccc(Cl)cc23)CC1)c1ccc2nc(Cl)sc2c1` [4-57], the figure is 501 to 1000 nM; as for `O=C(N[C@H]1CC[C@@H](Nc2cc(C(F)(F)F)nc3ccc(Cl)cc23)CC1)c1n[nH]c2c1COCC2` [4-60], 501 to 1000 nM; as for `Cn1cc(I)c(C(=O)N[C@H]2CC[C@@H](Nc3cc(C(F)(F)F)nc4ccc(Cl)cc34)CC2)n1` [4-90], 501 to 1000 nM. As for `CN(C)c1ccc(C(=O)N[C@H]2CC[C@@H](Nc3cc(C(F)(F)F)nc4ccc(Cl)cc34)CC2)cc1` [4-102], the figure is 100 to 500 nM; as for `CC(=O)Nc1ccc(C(=O)N[C@H]2CC[C@@H](Nc3cc(C(F)(F)F)nc4ccc(Cl)cc34)CC2)cc1` [4-103], under 100 nM; as for `O=C(N[C@H]1CC[C@@H](Nc2cc(C(F)(F)F)nc3ccc(Cl)cc23)CC1)c1csnn1` [4-107], 501 to 1000 nM. Turning to `O=C(N[C@H]1CC[C@@H](Nc2cc(C(F)(F)F)nc3ccc(Cl)cc23)CC1)C1CCN(C(=O)c2ccccc2Cl)CC1` [4-122], the IC50 is over 2500 nM. For `CS(=O)(=O)c1ccc(C(=O)N[C@H]2CC[C@@H](Nc3cc(C(F)(F)F)nc4ccc(Cl)cc34)CC2)c(Cl)c1` [4-123], the IC50 lay in the range of 100 to 500 nM.

Regarding `CC(C)Cc1cc(C(=O)N[C@H]2CC[C@@H](Nc3cc(C(F)(F)F)nc4ccc(Cl)cc34)CC2)n(C)n1` [4-129], the IC50 was 1000 to 2500 nM. Turning to `O=C(CCOc1cccc(F)c1)N[C@H]1CC[C@@H](Nc2cc(C(F)(F)F)nc3ccc(Cl)cc23)CC1` [4-134], the IC50 was over 2500 nM. Regarding `Cc1cc(C(F)(F)F)nn1CC(=O)N[C@H]1CC[C@@H](Nc2cc(C(F)(F)F)nc3ccc(Cl)cc23)CC1` [4-141], the IC50 lay in the range of 1000 to 2500 nM. Turning to `O=C(N[C@H]1CC[C@@H](Nc2cc(C(F)(F)F)nc3ccc(Cl)cc23)CC1)c1ccc2oc(=O)ccc2c1` [4-145], the IC50 fell in the range of 100 to 500 nM. With `O=C(N[C@H]1CC[C@@H](Nc2cc(C(F)(F)F)nc3ccc(Cl)cc23)CC1)c1cccn1-c1ccccc1` [4-162], the IC50 fell in the range of 1000 to 2500 nM. To `O=C1Nc2c(C(=O)N[C@H]3CC[C@@H](Nc4cc(C(F)(F)F)nc5ccc(Cl)cc45)CC3)cccc2C1=O` [4-164] belongs 100 to 500 nM; to `CCCS(=O)(=O)Nc1ccc(F)c(C(=O)N[C@H]2CC[C@@H](Nc3cc(C(F)(F)F)nc4ccc(Cl)cc34)CC2)c1F` [4-173], 100 to 500 nM; to `CC1C(C(=O)N[C@H]2CC[C@@H](Nc3cc(C(F)(F)F)nc4ccc(Cl)cc34)CC2)CC2CC1C2(C)C` (some centres unmarked) [4-200], 1000 to 2500 nM.

Regarding `CCCc1nnsc1C(=O)N[C@H]1CC[C@@H](Nc2cc(C(F)(F)F)nc3ccc(Cl)cc23)CC1` [4-209], the IC50 lay in the range of 1000 to 2500 nM.

With `O=C(N[C@H]1CC[C@@H](Nc2cc(C(F)(F)F)nc3ccccc23)CC1)c1ccnc2ccccc12` [4-230], the IC50 lay within 1000 to 2500 nM.

As to `O=C(N[C@H]1CC[C@@H](Nc2cc(C(F)(F)F)nc3ccccc23)CC1)c1ccc(Cl)s1` [4-241], the IC50 lay within 501 to 1000 nM. As to `N#Cc1ccc(C(=O)N[C@H]2CC[C@@H](Nc3cc(C(F)(F)F)nc4ccccc34)CC2)s1` [4-242], the IC50 fell in the range of 1000 to 2500 nM. As for `N#Cc1csc(C(=O)N[C@H]2CC[C@@H](Nc3cc(C(F)(F)F)nc4ccccc34)CC2)c1` [4-243], the IC50 fell in the range of 501 to 1000 nM. As for `O=C(N[C@H]1CC[C@@H](Nc2cc(C(F)(F)F)nc3ccccc23)CC1)c1cc(Cl)cs1` [4-251], the figure is 501 to 1000 nM; as for `COc1ccc(C(=O)N[C@H]2CC[C@@H](Nc3cc(C(F)(F)F)nc4ccccc34)CC2)cc1N(C)C` [4-258], 501 to 1000 nM; as for `O=C(N[C@H]1CC[C@@H](Nc2cc(C(F)(F)F)nc3ccccc23)CC1)c1ccc2ncccc2n1` [4-265], 1000 to 2500 nM. To `O=C(N[C@H]1CC[C@@H](Nc2cc(C(F)(F)F)nc3ccccc23)CC1)c1coc2ccccc12` [4-272] belongs 100 to 500 nM; to `CC(C)C(=O)Nc1cccc(C(=O)N[C@H]2CC[C@@H](Nc3cc(C(F)(F)F)nc4ccc(Cl)cc34)CC2)c1` [4-279], 100 to 500 nM. On to `CN(C)C(=O)Nc1cccc(C(=O)N[C@H]2CC[C@@H](Nc3cc(C(F)(F)F)nc4ccc(Cl)cc34)CC2)c1` [4-281], for which the IC50 is 100 to 500 nM. To `CCNc1cccc(C(=O)N[C@H]2CC[C@@H](Nc3cc(C(F)(F)F)nc4ccc(Cl)cc34)CC2)c1` [4-282] belongs 100 to 500 nM; to `O=C1CCc2ccc(C(=O)N[C@H]3CC[C@@H](Nc4cc(C(F)(F)F)nc5ccc(Cl)cc45)CC3)cc2N1` [4-283], 100 to 500 nM; to `O=C(N[C@H]1CC[C@@H](Nc2cc(C(F)(F)F)nc3ccccc23)CC1)[C@H]1C[C@@H]1c1ccccc1` [4-291], 1000 to 2500 nM. In the case of `CNC(=O)Nc1cccc(C(=O)N[C@H]2CC[C@@H](Nc3cc(C(F)(F)F)nc4ccc(Cl)cc34)CC2)c1` [Example 5A], the IC50 was under 100 nM.
